# Source: US20200245620A1 (priority 2018, published 2020)
# Several values for one entry are separate records, joined by “and”; a condition that tells them apart may be missing. Equal values may be shown once. Read-outs that look alike come from different tables or passages of the source.
# Assays:
# Fusarium graminearum = assay: microbe, parasite or virus in culture; assay type: cell-based; settings: for EC50: F.g sensitive strains
# Fusarium asiaticum = assay: microbe, parasite or virus in culture; assay type: cell-based
# wheat scab = assay type: in vivo
# wheat scab fungi = assay type: in vivo
# leaf blight of wheat = assay: Field efficacy on wheat diseases; assay type: in vivo; settings: 40 g a.i./Mu
# Procedure: (§1) The field prevention and control efficacy of the fungicidal composition preparations of embodiments 1-8 on wheat diseases was experimented. The experimental field was arranged in Jiangsu Yancheng Xinyang Farm. The wheat variety was Huaimai 33. At the initial stage of wheat blooming, a Nongjiale 16L knapsack electric sprayer was adopted to carry out application for the first time, application was carried out for the second time after five days, water consumption was 50 kg/Mu, the area of each plot was 50 square meters, each treatment was repeated for three times, and the fungicidal composition was not applied on the blank control. Meanwhile, 80 g of carbendazim wettable powder which was 50 percent was used as a control agent for treatment per mu. According to a corresponding method specified by the industrial standard of Guidelines for the Field Efficacy Trials of Fungicides issued by the Ministry of Agriculture, the occurrences of powdery mildew, rust, sheath blight and leaf blight of wheat were investigated at the stage of milky ripeness, disease indexes and prevention and control effects were calculated, and the result is shown in table 7.
# powdery mildew of wheat = assay: Field efficacy on wheat diseases; assay type: in vivo; settings: 40 g a.i./Mu
# Procedure: as §1
# sheath blight of wheat = assay: Field efficacy on wheat diseases; assay type: in vivo; settings: 40 g a.i./Mu
# Procedure: as §1
# rust of wheat = settings: in vivo
# [1] = test system: Carbendazim-resistant fusarium asiaticum; assay: microbe, parasite or virus in culture; assay type: cell-based; settings: for inhibition at 1 µg/mL / inhibition at 10 µg/mL / inhibition at 100 µg/mL / inhibition at 1000 µg/mL / inhibition at 10000 µg/mL: Fusarium asiaticum, read-out: DON Biosynthesis Inhibition Rate
# [2] = test system: barley scab (fusarium head blight); assay type: in vivo
# barley leaf blight = assay: Field efficacy on barley diseases; assay type: in vivo
# Procedure: (§2) The field prevention and control efficacy of the fungicidal composition preparations of embodiments 1-8 on barley diseases was experimented, wherein different doses of single jinggangmycin agent and single ipconazole agent were designed for treatment. In 2014, application was carried out for the first time at the initial stage of barley blooming, application was carried out for the second time after five days, water consumption was 50 kg/Mu, the area of each plot was 50 square meters, each treatment was repeated for three times, and the fungicidal composition was not applied on the blank control. A conventional agent, polyketone wettable powder, was adopted as a control agent. According to a corresponding method specified by the industrial standard of Guidelines for the Field Efficacy Trials of Fungicides issued by the Ministry of Agriculture, the occurrences of barley scab, powdery mildew, rust and leaf blight were investigated at the stage of milky ripeness, disease indexes and prevention and control effects were calculated, and the result is shown in table 8. One hundred and fifty barley ears were sampled randomly every five treated points at the stage of wax ripeness, taken in for threshing and assayed according to the method of application embodiment 1, and toxin contents of the kernels were calculated.
# barley powdery mildew = assay: Field efficacy on barley diseases; assay type: in vivo
# Procedure: as §2
# barley rust = settings: in vivo
# [3] = test system: barley scab (fusarium head blight); assay type: in vivo; remark: listed apart in the source
# Tri5 gene = assay type: cell-based, fusarium asiaticum
# [4] = Fusarium asiaticum, read-out: Growth Inhibition Rate
compound,measurement,setting,value
"COC(=O)Nc1nc2ccccc2[nH]1 [Carbendazim, carbendazim]",EC50,Fusarium graminearum; Fusarium graminearum,0.45 µg/mL
same,EC50,Fusarium asiaticum; Fusarium asiaticum,0.45 µg/mL
same,"Disease Index Prevention Effect, Actual Prevention Effect",wheat scab; 40 g a.i./Mu,67.5%
same,DON Contamination Reduction Rate,wheat scab fungi; 40 g a.i./Mu,58.42%
same,Grain Toxin Content,wheat scab fungi; 40 g a.i./Mu,4.42 μg of toxin/g of kernels
same,"Disease Index Prevention Effect, Leaf Blight",leaf blight of wheat,48.53%
same,"Disease Index Prevention Effect, Powdery Mildew",powdery mildew of wheat,52.62%
same,"Disease Index Prevention Effect, Sheath Blight",sheath blight of wheat,44.65%
same,"Disease Index Prevention Effect, Rust",rust of wheat,61.24%
CC(C)C1CCC(Cc2ccc(Cl)cc2)C1(O)Cn1cncn1 (stereo not shown) [Ipconazole],EC50,Fusarium graminearum; Fusarium graminearum,0.89 µg/mL
same,inhibition at 0.0125 µg/mL,"Fusarium graminearum; Fusarium graminearum, read-out: Growth Inhibition Rate, sensitive strains, 0.0125 μg/mL",28.9%
same,inhibition at 0.025 µg/mL,"Fusarium graminearum; Fusarium graminearum, read-out: Growth Inhibition Rate, sensitive strains, 0.025 μg/mL",38.3%
same,inhibition at 0.05 µg/mL,"Fusarium graminearum; Fusarium graminearum, read-out: Growth Inhibition Rate, sensitive strains, 0.05 μg/mL",40.8%
same,inhibition at 0.1 µg/mL,"Fusarium graminearum; Fusarium graminearum, read-out: Growth Inhibition Rate, sensitive strains, 0.1 μg/mL",> 50%
same,inhibition at 0.2 µg/mL,"Fusarium graminearum; Fusarium graminearum, read-out: Growth Inhibition Rate, sensitive strains, 0.2 μg/mL",77.1%
same,Average Fungal Colony Diameter,"Fusarium graminearum; sensitive strains, 0.0125 μg/mL",53.5 mm
same,Average Fungal Colony Diameter,"Fusarium graminearum; sensitive strains, 0.025 μg/mL",46.4 mm
same,Average Fungal Colony Diameter,"Fusarium graminearum; sensitive strains, 0.05 μg/mL",44.5 mm
same,Average Fungal Colony Diameter,"Fusarium graminearum; sensitive strains, 0.1 μg/mL",31.8 mm
same,Average Fungal Colony Diameter,"Fusarium graminearum; sensitive strains, 0.2 μg/mL",17.2 mm
same,inhibition at 0.0125 µg/mL,Fusarium asiaticum; [4],29.5%
same,inhibition at 0.025 µg/mL,Fusarium asiaticum; [4],38.6%
same,inhibition at 0.05 µg/mL,Fusarium asiaticum; [4],41.7%
same,inhibition at 0.1 µg/mL,Fusarium asiaticum; [4],> 50%
same,inhibition at 0.2 µg/mL,Fusarium asiaticum; [4],76.6%
same,DON Biosynthesis Inhibition Rate,[1],0.36% and 0.31%
same,Toxin Production Capability,[1],87.68 μgDON/g by dry weight of hyphae and 52.16 μgDON/g by dry weight of hyphae
same,inhibitory effects on the toxin biosynthesis capability of the fusaria,[1],does not have significant inhibitory effects
same,"Disease Index Prevention Effect, Actual Prevention Effect",wheat scab; ipconazole 4 g a.i./Mu,42.65%
same,"Disease Index Prevention Effect, Actual Prevention Effect",wheat scab; ipconazole 6 g a.i./Mu,53.45%
same,"Disease Index Prevention Effect, Actual Prevention Effect",wheat scab; ipconazole 8 g a.i./Mu,67.58%
same,"Disease Index Prevention Effect, Actual Prevention Effect",wheat scab; ipconazole 10 g a.i./Mu,72.41%
same,"Disease Index Prevention Effect, Actual Prevention Effect",wheat scab; ipconazole 16 g a.i./Mu,80.33%
same,DON Contamination Reduction Rate,wheat scab fungi; ipconazole 4 g a.i./Mu,49.11%
same,Grain Toxin Content,wheat scab fungi; ipconazole 4 g a.i./Mu,5.41 μg of toxin/g of kernels
same,DON Contamination Reduction Rate,wheat scab fungi; ipconazole 6 g a.i./Mu,59.08%
same,Grain Toxin Content,wheat scab fungi; ipconazole 6 g a.i./Mu,4.35 μg of toxin/g of kernels
same,DON Contamination Reduction Rate,wheat scab fungi; ipconazole 8 g a.i./Mu,61.24%
same,Grain Toxin Content,wheat scab fungi; ipconazole 8 g a.i./Mu,4.12 μg of toxin/g of kernels
same,DON Contamination Reduction Rate,wheat scab fungi; ipconazole 10 g a.i./Mu,63.78%
same,Grain Toxin Content,wheat scab fungi; ipconazole 10 g a.i./Mu,3.85 μg of toxin/g of kernels
same,DON Contamination Reduction Rate,wheat scab fungi; ipconazole 16 g a.i./Mu,71.50%
same,Grain Toxin Content,wheat scab fungi; ipconazole 16 g a.i./Mu,3.03 μg of toxin/g of kernels
same,"Disease Index Prevention Effect, Fusarium head blight",[2]; ipconazole 5 g a.i./Mu,43.84%
same,"Disease Index Prevention Effect, Fusarium head blight",[2]; ipconazole 10 g a.i./Mu,62.41%
same,"Disease Index Prevention Effect, Leaf Blight",barley leaf blight; ipconazole 5 g a.i./Mu,64.29%
same,"Disease Index Prevention Effect, Leaf Blight",barley leaf blight; ipconazole 10 g a.i./Mu,75.34%
same,"Disease Index Prevention Effect, Powdery Mildew",barley powdery mildew; ipconazole 5 g a.i./Mu,76.24%
same,"Disease Index Prevention Effect, Powdery Mildew",barley powdery mildew; ipconazole 10 g a.i./Mu,85.64%
same,"Disease Index Prevention Effect, Rust",barley rust,74.25% and 82.65%
same,Grain Toxin Content,[3]; ipconazole 5 g a.i./Mu,3.54 mg of DON/Kg of kernel
same,Toxin Reduction Percentage,[3]; ipconazole 5 g a.i./Mu,58.50%
same,Grain Toxin Content,[3]; ipconazole 10 g a.i./Mu,2.57 mg of DON/Kg of kernel
same,Toxin Reduction Percentage,[3]; ipconazole 10 g a.i./Mu,69.87%
OCC1=C[C@H](N[C@H]2C[C@H](CO)[C@@H](O[C@@H]3O[C@H](CO)[C@@H](O)[C@H](O)[C@H]3O)[C@H](O)[C@H]2O)[C@H](O)[C@@H](O)[C@@H]1O [Jinggangmycin],inhibition at 50 µg/mL,"Fusarium graminearum; Fusarium graminearum, read-out: Growth Inhibition Rate, sensitive strains, 50 μg/mL",6.5 to 7.8%
same,synergistic effect for ipconazole in inhibiting hyphal growth in vitro,Fusarium graminearum; jinggangmycin 0.1-50 μg/mL with ipconazole 0.05 or 0.1 μg/mL,does not have a synergistic effect
same,Average Fungal Colony Diameter,"Fusarium graminearum; sensitive strains, 0.1 μg/mL",76.3 mm
same,Average Fungal Colony Diameter,"Fusarium graminearum; sensitive strains, 1 μg/mL",76.2 mm
same,Average Fungal Colony Diameter,"Fusarium graminearum; sensitive strains, 10 μg/mL",75.4 mm
same,Average Fungal Colony Diameter,"Fusarium graminearum; sensitive strains, 50 μg/mL",70.3 mm
same,Growth Inhibition Rate,"Fusarium graminearum; sensitive strains, 50 μg/mL",6.52%
same,Average Fungal Colony Diameter,Fusarium asiaticum,75.6 mm and 69.4 mm and 76.3 mm
same,inhibitory activity on the growth in vitro,Fusarium asiaticum,almost does not have inhibitory activity
same,synergistic effect for ipconazole in inhibiting hyphal growth in vitro,Fusarium asiaticum,does not have a synergistic effect
same,inhibition at 50 µg/mL,Fusarium asiaticum; [4],6.5 to 7.8%
same,inhibition at 1 µg/mL,[1]; 168 h,28.6%
same,inhibition at 10 µg/mL,[1]; 168 h,35.5%
same,inhibition at 100 µg/mL,[1]; 168 h,45.2%
same,inhibition at 1000 µg/mL,[1]; 168 h,65.5%
same,inhibition at 10000 µg/mL,[1]; 168 h,75.9%
same,inhibition at 1 µg/mL,[1]; 336 h,1.7%
same,inhibition at 10 µg/mL,[1]; 336 h,7.87%
same,inhibition at 100 µg/mL,[1]; 336 h,29.9%
same,inhibition at 1000 µg/mL,[1]; 336 h,57%
same,inhibition at 10000 µg/mL,[1]; 336 h,75.4%
same,Rate of Inhibition on Relative Expression Level of Tri5 Gene,Tri5 gene,66% and 84% and 87% and 90% and 59%
same,"Disease Index Prevention Effect, Actual Prevention Effect",wheat scab; 2 g a.i./Mu,0%
same,"Disease Index Prevention Effect, Actual Prevention Effect",wheat scab; jinggangmycin 4 g a.i./Mu,8.65%
same,"Disease Index Prevention Effect, Actual Prevention Effect",wheat scab; jinggangmycin 8 g a.i./Mu,10.24%
same,"Disease Index Prevention Effect, Actual Prevention Effect",wheat scab; jinggangmycin 10 g a.i./Mu,14.31%
same,"Disease Index Prevention Effect, Actual Prevention Effect",wheat scab; jinggangmycin 12 g a.i./Mu,16.54%
same,"Disease Index Prevention Effect, Actual Prevention Effect",wheat scab; jinggangmycin 16 g a.i./Mu,18.65%
same,DON Contamination Reduction Rate,wheat scab fungi; 2 g a.i./Mu,16.18%
same,Grain Toxin Content,wheat scab fungi; 2 g a.i./Mu,8.91 μg of toxin/g of kernels
same,DON Contamination Reduction Rate,wheat scab fungi; jinggangmycin 4 g a.i./Mu,19.00%
same,Grain Toxin Content,wheat scab fungi; jinggangmycin 4 g a.i./Mu,8.61 μg of toxin/g of kernels
same,DON Contamination Reduction Rate,wheat scab fungi; jinggangmycin 8 g a.i./Mu,37.72%
same,Grain Toxin Content,wheat scab fungi; jinggangmycin 8 g a.i./Mu,6.62 μg of toxin/g of kernels
same,DON Contamination Reduction Rate,wheat scab fungi; jinggangmycin 10 g a.i./Mu,41.58%
same,Grain Toxin Content,wheat scab fungi; jinggangmycin 10 g a.i./Mu,6.21 μg of toxin/g of kernels
same,DON Contamination Reduction Rate,wheat scab fungi; jinggangmycin 12 g a.i./Mu,50.99%
same,Grain Toxin Content,wheat scab fungi; jinggangmycin 12 g a.i./Mu,5.21 μg of toxin/g of kernels
same,DON Contamination Reduction Rate,wheat scab fungi; jinggangmycin 16 g a.i./Mu,54.37%
same,Grain Toxin Content,wheat scab fungi; jinggangmycin 16 g a.i./Mu,4.85 μg of toxin/g of kernels
same,"Disease Index Prevention Effect, Fusarium head blight",[2]; jinggangmycin 5 g a.i./Mu,4.54%
same,"Disease Index Prevention Effect, Fusarium head blight",[2]; jinggangmycin 10 g a.i./Mu,12.58%
same,"Disease Index Prevention Effect, Leaf Blight",barley leaf blight; jinggangmycin 5 g a.i./Mu,0%
same,"Disease Index Prevention Effect, Leaf Blight",barley leaf blight; jinggangmycin 10 g a.i./Mu,0%
same,"Disease Index Prevention Effect, Powdery Mildew",barley powdery mildew; jinggangmycin 5 g a.i./Mu,0%
same,"Disease Index Prevention Effect, Powdery Mildew",barley powdery mildew; jinggangmycin 10 g a.i./Mu,0%
same,"Disease Index Prevention Effect, Rust",barley rust,0%
same,Grain Toxin Content,[3]; jinggangmycin 5 g a.i./Mu,5.28 mg of DON/Kg of kernel
same,Toxin Reduction Percentage,[3]; jinggangmycin 5 g a.i./Mu,38.10%
same,Grain Toxin Content,[3]; jinggangmycin 10 g a.i./Mu,4.62 mg of DON/Kg of kernel
same,Toxin Reduction Percentage,[3]; jinggangmycin 10 g a.i./Mu,45.84%
"CCOC(=O)C(C#N)=C(N)c1ccccc1 [Phenamacril, phenamacril]",EC50,Fusarium graminearum,0.165 µg/mL
